Legend:
CDK2/human cyclin E = CDK2/human cyclin E (Homo sapiens, UniProt P24941); assay: Determination of activity of CDK2 kinase (Caliper mobility shift); type: biochemical; details: 10 μM ATP, 0.1 nM enzyme, 25° C. 6 hours; read-out: CDK2/CycE IC50
Description: The activity of CDK2 kinase in vitro was tested by the following method: • Final buffer: • 100 mM 4-hydroxyethyl piperazine ethanesulfonic acid, pH 7.5; • 0.1% bovine serum albumin; • 0.01% Triton X-100; • 1 mM dithiothreitol; • 5 mM magnesium chloride; • 10 μM sodium orthovanadate; • 10 μM sodium P-glycerophosphate; • 10 μM ATP; • 1% DMSO (from the compound to be tested); • Substrate Peptide: 1 μM FAM-[…]-OH, wherein FAM is 5-carboxyfluorescein; • 0.1 nM CDK2/human cyclin E.
(§1) 5 μL of buffer, 0.1 μL of compound to be tested (DMSO, 100 times the highest concentration) and 5 μL of substrate peptide buffer were added to a 384-well plate. The reaction was terminated with EDTA after culturing at 25° C. for 6 hours. Electrophoresis reading was started (Caliper LabChip® 3000 Drug Discovery System, blue laser (480 nm) for excitation, green CCD (520 nm) for detection of CCD2).

CDK4/human cyclin D1 = CDK4/human cyclin D1 (Homo sapiens, UniProt P11802); assay: Determination of activity of CDK4 kinase (Caliper mobility shift); type: biochemical; details: 25 μM ATP, 5 nM enzyme, 25° C. 6 hours; read-out: CDK4/CycD1 IC50
Sequence of CDK4/human cyclin D1 (P11802 whole entry): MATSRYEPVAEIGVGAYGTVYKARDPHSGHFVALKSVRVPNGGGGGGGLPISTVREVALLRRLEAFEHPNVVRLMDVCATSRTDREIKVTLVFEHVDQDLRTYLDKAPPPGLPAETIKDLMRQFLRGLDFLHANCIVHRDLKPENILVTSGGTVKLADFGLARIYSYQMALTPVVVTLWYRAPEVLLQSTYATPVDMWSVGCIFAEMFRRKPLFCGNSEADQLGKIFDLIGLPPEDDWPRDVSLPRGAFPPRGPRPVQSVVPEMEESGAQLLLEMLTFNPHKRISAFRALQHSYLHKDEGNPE
Sequence of CDK4/human cyclin D1 (P24385 whole entry partner): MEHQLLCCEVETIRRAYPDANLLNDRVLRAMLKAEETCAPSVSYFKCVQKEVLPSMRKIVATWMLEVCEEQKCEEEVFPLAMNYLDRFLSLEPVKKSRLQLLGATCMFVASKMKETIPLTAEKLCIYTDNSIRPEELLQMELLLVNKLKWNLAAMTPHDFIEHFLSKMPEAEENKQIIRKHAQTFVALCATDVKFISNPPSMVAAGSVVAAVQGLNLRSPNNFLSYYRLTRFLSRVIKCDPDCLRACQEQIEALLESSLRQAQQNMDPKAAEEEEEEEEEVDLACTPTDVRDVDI
Description: The activity of CDK4 kinase in vitro was tested by the following method: • Final buffer: • 100 mM 4-hydroxyethyl piperazine ethanesulfonic acid, pH 7.5; • 0.1% bovine serum albumin; • 0.01% Triton X-100; • 1 mM dithiothreitol; • 5 mM magnesium chloride; • 10 μM sodium orthovanadate; • 10 μM sodium P-glycerophosphate; • 25 μM ATP; • 1% DMSO (from the compound to be tested); • Substrate Peptide: 1 μM FAM-[…]-NH2 segment, wherein FAM is 5-carboxyfluorescein; • 5 nM CDK4/human cyclin D1.
as §1

MDA-MB-468 cells = assay: Determination of activity of MDA-MB-468 cells (CellTiter-Glo); type: cell-based; details: Homo sapiens, MDA-MB-468, 120 h, 5 days culture
Description: • MDA-MB-468 (ATCC No. HTB-132); • RPMI 1640 (Invitrogen No. 22400089); • FBS (Hyclone No. SV30087.03); • Pen Strep (Hyclone No. SV30010); • CellTiter-Glo (Promega No. G7573); • Medium: 89% RPMI 1640, 10% FBS and 1% Pen Strep;
300 MDA-MB-468 cells and 50 μL of medium were inoculated in a plate with 100 μL of PBS buffer added, which was then cultured for 24 hours at 37° C./5% CO2, then 250 nL of samples, which were taken from the compounds to be tested at ten test points and diluted with four times DMSO, were added to the plate wells and cultured for 5 days at 37° C./5% CO2, then 25 μL of CellTiter-Glo was added to each plate well, followed by centrifugation by rotating (1000 rpm) for 15 seconds, and vibration mixing (400 rpm) for 10 minutes, the microplate reader Envision was started to read.

CDK6/human cyclin D3 = biological target: T1, CDK6/human cyclin D3 (Homo sapiens, UniProt Q00534); assay: Determination of activity of CDK6 kinase (Caliper mobility shift); type: biochemical; details: 300 μM ATP, 2 nM enzyme, 25° C. 3 hours; read-out: CDK6/CycD3 IC50
T1 construct: purchased Carna 04-107
T1 sequence (Q00534 whole entry): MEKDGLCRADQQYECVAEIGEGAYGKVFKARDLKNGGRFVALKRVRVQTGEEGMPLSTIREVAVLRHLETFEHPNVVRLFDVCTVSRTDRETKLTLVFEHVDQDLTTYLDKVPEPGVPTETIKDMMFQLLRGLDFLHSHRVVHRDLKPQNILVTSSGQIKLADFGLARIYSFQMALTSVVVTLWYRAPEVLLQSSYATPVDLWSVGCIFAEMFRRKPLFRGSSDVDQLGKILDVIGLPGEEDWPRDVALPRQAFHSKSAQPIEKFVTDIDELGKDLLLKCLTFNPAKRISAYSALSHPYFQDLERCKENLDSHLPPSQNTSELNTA
T1 sequence (P30281 whole entry partner): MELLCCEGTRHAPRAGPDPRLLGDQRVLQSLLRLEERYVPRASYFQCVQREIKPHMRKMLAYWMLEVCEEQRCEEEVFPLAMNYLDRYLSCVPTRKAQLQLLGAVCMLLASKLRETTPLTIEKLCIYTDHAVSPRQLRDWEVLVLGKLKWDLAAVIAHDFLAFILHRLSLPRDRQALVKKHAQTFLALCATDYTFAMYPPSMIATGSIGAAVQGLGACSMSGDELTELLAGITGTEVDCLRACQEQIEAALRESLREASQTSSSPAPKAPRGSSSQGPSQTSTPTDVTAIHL
Description: The activity of CDK6 kinase in vitro was tested by the following method: • 2 nM CDK6/human cyclin D3 (Carna, No. 04-107) • Final buffer: • 100 mM 4-hydroxyethyl piperazine ethanesulfonic acid, pH 7.5; • 0.1% bovine serum albumin; • 0.01% Triton X-100; • 1 mM dithiothreitol; • 5 mM magnesium chloride; • 10 μM sodium orthovanadate; • 10 μM sodium P-glycerophosphate; • 300 μM ATP; • 1% DMSO (from the compound to be tested); • Substrate peptide: Dyrktide;
as §1, with “3” for “6”

Cc1nc2c(F)cc(-c3nc(Nc4ccc(N5CCC(N(C)CCO)CC5)cn4)ncc3F)cc2n1C(C)C [Compound 1963]
IC50 (CDK2/human cyclin E): 101 nM
IC50 (CDK4/human cyclin D1): 1.78 nM
IC50 (MDA-MB-468 cells): 459 nM
IC50 (CDK6/human cyclin D3): 1 nM

Cc1nc2c(F)cc(-c3nc(Nc4ccc(CN5CCC(N(C)CCO)CC5)cn4)ncc3F)cc2n1C(C)C [Compound 1964]
IC50 (CDK2/human cyclin E): 313 nM
IC50 (CDK4/human cyclin D1): 1.4 nM
IC50 (MDA-MB-468 cells): 126 nM
IC50 (CDK6/human cyclin D3): 8.6 nM

CNC1CCN(c2ccc(Nc3ncc(F)c(-c4cc(F)c5nc(C)n(C(C)C)c5c4)n3)nc2)CC1 [Compound 1967]
IC50 (CDK2/human cyclin E): 122 nM
IC50 (CDK4/human cyclin D1): 0.17 nM
IC50 (MDA-MB-468 cells): 682 nM
IC50 (CDK6/human cyclin D3): 1.23 nM

CC(C)n1c(CF)nc2c(F)cc(-c3nc(Nc4ccc(CN5CCC(N(C)C)CC5)cn4)ncc3F)cc21 [Compound 1975]
IC50 (CDK2/human cyclin E): 8.2 nM
IC50 (CDK4/human cyclin D1): 1.55 nM
IC50 (MDA-MB-468 cells): 457 nM
IC50 (CDK6/human cyclin D3): 6.7 nM

CCN1CCN(Cc2ccc(Nc3ncc(F)c(-c4cc(F)c5nc(CF)n(C(C)C)c5c4)n3)nc2)CC1 [Compound 1978]
IC50 (CDK2/human cyclin E): 459 nM
IC50 (CDK4/human cyclin D1): 2.6 nM
IC50 (MDA-MB-468 cells): 1150 nM
IC50 (CDK6/human cyclin D3): 9.8 nM

Cc1nc2c(F)cc(-c3nc(Nc4ccc(CN5CCN(CCO)CC5)cn4)ncc3F)cc2n1C(C)C [Compound 1979]
IC50 (CDK2/human cyclin E): 163 nM
IC50 (CDK4/human cyclin D1): 0.83 nM
IC50 (MDA-MB-468 cells): 1390 nM
IC50 (CDK6/human cyclin D3): 4.1 nM

CC(C)n1c(CF)nc2c(F)cc(-c3nc(Nc4ccc(N5CCC(N(C)C)CC5)cn4)ncc3F)cc21 [Compound 1984]
IC50 (CDK2/human cyclin E): 231 nM
IC50 (CDK4/human cyclin D1): 1.25 nM
IC50 (MDA-MB-468 cells): 344 nM
IC50 (CDK6/human cyclin D3): 3.9 nM

CCN1CCN(c2ccc(Nc3ncc(F)c(-c4cc(F)c5nc(CF)n(C(C)C)c5c4)n3)nc2)CC1 [Compound 1985]
IC50 (CDK2/human cyclin E): 128 nM
IC50 (CDK4/human cyclin D1): 0.98 nM
IC50 (MDA-MB-468 cells): 454 nM
IC50 (CDK6/human cyclin D3): 3 nM

Cc1nc2c(F)cc(-c3nc(Nc4ccc(N5CCN(CCO)CC5)cn4)ncc3F)cc2n1C(C)C [Compound 1986]
IC50 (CDK2/human cyclin E): 95 nM
IC50 (CDK4/human cyclin D1): 1.2 nM
IC50 (MDA-MB-468 cells): 573 nM
IC50 (CDK6/human cyclin D3): 1.8 nM

Cc1nc2c(F)cc(-c3nc(Nc4ccc(N5CCN(CC(C)O)CC5)cn4)ncc3F)cc2n1C(C)C (centres unmarked) [Compound 1987]
IC50 (CDK2/human cyclin E): 355 nM
IC50 (CDK4/human cyclin D1): 1.2 nM
IC50 (MDA-MB-468 cells): 345 nM
IC50 (CDK6/human cyclin D3): 5.9 nM

COCCN1CCN(c2ccc(Nc3ncc(F)c(-c4cc(F)c5nc(C)n(C(C)C)c5c4)n3)nc2)CC1 [Compound 1988]
IC50 (CDK2/human cyclin E): 92 nM
IC50 (CDK4/human cyclin D1): 0.75 nM
IC50 (MDA-MB-468 cells): 529 nM
IC50 (CDK6/human cyclin D3): 1.1 nM

CC(C)n1c(CF)nc2c(F)cc(-c3nc(Nc4ccc(N5CCC(N(C)CCO)CC5)cn4)ncc3F)cc21 [Compound 1990]
IC50 (CDK2/human cyclin E): 5.3 nM
IC50 (CDK4/human cyclin D1): 1.54 nM
IC50 (MDA-MB-468 cells): 276 nM
IC50 (CDK6/human cyclin D3): 4.8 nM

CCN1CCN(Cc2ccc(Nc3ncc(F)c(-c4cc(F)c5nc(CO)n(C(C)C)c5c4)n3)nc2)CC1 [Compound 1994]
IC50 (CDK2/human cyclin E): 82 nM
IC50 (CDK4/human cyclin D1): 0.67 nM
IC50 (MDA-MB-468 cells): 485 nM
IC50 (CDK6/human cyclin D3): 8.7 nM

CC(C)n1c(CF)nc2c(F)cc(-c3nc(Nc4ccc(CN5CCC(N(C)CCO)CC5)cn4)ncc3F)cc21 [Compound 1995]
IC50 (CDK2/human cyclin E): 6.2 nM
IC50 (CDK4/human cyclin D1): 1.75 nM
IC50 (MDA-MB-468 cells): 186 nM
IC50 (CDK6/human cyclin D3): 10.1 nM

Source: US12673935B2, “Pyrimidine derivative, and preparation method therefor and use thereof” (CGENETECH (SUZHOU, CHINA) CO., LTD., priority 2020, dated 2026)
